The results in this text go back to patent US8609648B2, “Hepatitis C virus inhibitors” (Enanta Pharmaceuticals, Inc., priority 2009, dated 2013).

The test system of the test is HCV 1b genotype replicon. Description: HCV replicon assay (qRT-PCR or luciferase). It counts as cell-based. The conditions noted are these: Hepatitis C virus, read-out: Genotype-1b replicon EC50 Range. The source says:
HCV replicon cell lines (kindly provided by R. Bartenschlager) isolated from colonies as described by Lohman et. al. (Lohman et al. (1999) Science 285: 110-113, expressly incorporated by reference in its entirety) and used for all experiments. The HCV replicon has the nucleic acid sequence set forth in EMBL Accession No.: AJ242651, the coding sequence of which is from nucleotides 1801 to 8406.
The coding sequence of the published HCV replicon was synthesized and subsequently assembled in a modified plasmid pBR322 (Promega, Madison, Wis.) using standard molecular biology techniques. One replicon cell line (“SGR 11-7”) stably expresses HCV replicon RNA which consists of (i) the HCV 5′UTR fused to the first 12 amino acids of the capsid protein, (ii) the neomycin phosphotransferase gene (neo), (iii) the IRES from encephalomyocarditis virus (EMCV), and (iv) HCV NS2 to NS5B genes and the HCV 3′UTR. Another replicon cell line (“Huh-luc/neo-ET”) described by Vrolijk et. al. (Vrolijk et. al. (2003) Journal of Virological Methods 110:201-209, expressly incorporated by reference in its entirety) stably expresses HCV replicon RNA which consists of (i) the HCV 5′UTR fused to the first 12 amino acids of the capsid protein, (ii) the firefly luciferase reporter gene, (iii) the ubiquitin gene, (iv) the neomycin phosphotransferase gene (neo), (v) the IRES from encephalomyocarditis virus (EMCV), and (vi) HCV NS3 to NS5B genes that harbor cell culture adaptive mutations (E1202G, T1280I, K1846T) and the HCV 3′UTR.
These cell lines were maintained at 37° C., 5% CO2, 100% relative humidity in DMEM (Cat#11965-084, Invitrogen), with 10% fetal calf serum (“FCS”, Invitrogen), 1% non-essential amino acids (Invitrogen), 1% of Glutamax (Invitrogen), 1% of 100× penicillin/streptomycin (Cat#15140-122, Invitrogen) and Geneticin (Cat#10131-027, Invitrogen) at 0.75 mg/ml or 0.5 mg/ml for 11-7 and Huh-luc/neo-ET cells, respectively.
EC50 values of single agent compounds and combinations were determined by HCV RNA detection using quantitative RT-PCR, according to the manufacturer's instructions, with a TAQMAN® One-Step RT-PCR Master Mix Reagents Kit (Cat# AB 4309169, Applied Biosystems) on an ABI Model 7500 thermocycler. The TaqMan primers used for detecting and quantifying HCV RNA were obtained from Integrated DNA Technologies. HCV RNA was normalized to GAPDH RNA levels in drug-treated cells, which is detected and quantified using the Human GAPDH Endogenous Control Mix (Applied Biosystems, AB 4310884E). Total cellular RNA is purified from 96-well plates using the RNAqueous 96 kit (Ambion, Cat# AM1812). Chemical agent cytotoxicity is evaluated using an MTS assay according to the manufacturer's directions (Promega).
Since clinical drug resistance often develops in viral infections following single agent therapies, there is a need to assess the additive, antagonistic, or synergistic properties of combination therapies. We used the HCV replicon system to assess the potential use of the compound of the present invention or in combination therapies with Interferon alpha, cyclosporine analogs and inhibitors targeting other HCV proteins. The acute effects of a single or combinations of drugs are studied in the “Huh-luc/neo-ET” replicon with each chemical agent titrated in an X or Y direction in a 6 point two-fold dilution curve centered around the EC50 of each drug. Briefly, replicon cells are seeded at 7,000 cells per well in 90 ul DMEM (without phenol red, Invitrogen Cat.#31053-036) per well with 10% FCS, 1% non-essential amino acids, 1% of Glutamax and 1% of 100× penicillin/streptomycin and incubated overnight at 37° C., 5% CO2, 100% relative humidity. […]

The structures appear in SMILES notation.

Broadly, the EC50 is the concentration needed to bring the measured effect to its halfway point. As for `COC(=O)N[C@H](C(=O)N1CCC[C@H]1c1ncc(-c2ccc(-c3ccc(-c4cnc([C@@H]5CS[C@@H]6CCCC(=O)N65)[nH]4)cc3)cc2)[nH]1)C(C)C` [Example 372], the EC50 was less than 1 nM.
For `COC(=O)N[C@H](C(=O)N1CCC[C@H]1c1ncc(-c2ccc(-c3ccc(-c4cnc([C@@H]5CS[C@H]6CCCC(=O)N65)[nH]4)cc3)cc2)[nH]1)C(C)C` [Example 373], the EC50 is less than 1 nM.
The value for `COC(=O)N[C@H](C(=O)N1CCC[C@H]1c1ncc(-c2ccc(-c3ccc(-c4cnc([C@@H]5CC[C@@H]6CCCCC(=O)N65)[nH]4)cc3)cc2)[nH]1)C(C)C` [Example 375] was less than 1 nM; that for `COC(=O)N[C@H]1CC[C@@H]2SC[C@@H](c3ncc(-c4ccc(-c5ccc(-c6cnc([C@@H]7CCCN7C(=O)[C@@H](NC(=O)OC)C(C)C)[nH]6)cc5)cc4)[nH]3)N2C1=O` [Example 368] was less than 1 nM.
To `COC(=O)N[C@H]1CCC[C@@H]2CC[C@@H](c3ncc(-c4ccc(-c5ccc(-c6cnc([C@@H]7CCCN7C(=O)[C@@H](NC(=O)OC)C(C)C)[nH]6)cc5)cc4)[nH]3)N2C1=O` [Example 376] belongs less than 1 nM; to `COC(=O)NC1CC[C@@H]2CC[C@@H](c3ncc(-c4ccc(-c5ccc(-c6cnc([C@@H]7CCCN7C(=O)[C@@H](NC(=O)OC)C(C)C)[nH]6)cc5)cc4)[nH]3)N2C1=O` (mixture of isomers) [Example 371], less than 1 nM.
In the case of `COC(=O)N[C@H]1CC[C@H]2CC[C@@H](c3ncc(-c4ccc(-c5ccc(-c6cnc([C@@H]7CCCN7C(=O)[C@@H](NC(=O)OC)C(C)C)[nH]6)cc5)cc4)[nH]3)N2C1=O` [Example 369], the concentration giving a half-maximal response (EC50) was less than 1 nM.
In the case of `COC(=O)N[C@H](C(=O)N1CCC[C@H]1c1ncc(-c2ccc(-c3ccc(-c4cnc([C@@H]5CC[C@H]6CCCCC(=O)N65)[nH]4)cc3)cc2)[nH]1)C(C)C` [Example 374], the EC50 was less than 1 nM.
Take `COC(=O)N[C@H](C(=O)N1CCC[C@H]1c1ncc(-c2ccc(-c3ccc(-c4cnc([C@@H]5CC[C@@H]6CC[C@@H](NC(=O)OC)C(=O)N65)[nH]4)cc3)cc2)[nH]1)C(C)C` [Example 370]: the concentration for a half-maximal effect (EC50) is less than 1 nM.
